In paper PMC9889419 (Pharmacological Reports, 2022):
Where a name gives a salt, the structure may show the parent alone. Read-outs that look alike come from different tables or passages of the source.

Key:
[1] = Pharmacokinetics in plasma; format: in vivo, rats; details: for bioavailability / AUC(0-t) / C0 / MRT / clearance / Vd / k el / CL/F / Cmax / Tmax / Vd/F: male, Wistar, rat, plasma; for bioavailability: po; for bioavailability / AUC(0-t) / C0 / MRT / clearance / Vd / k el / CL/F / Cmax / Tmax / Vd/F / t0.5λz: rats; for Vd: read-out: Vz; for k el: read-out: λz (converted); for Vd/F: read-out: Vz/F
Experimental: Pharmacokinetic study design. Male Wistar rats (250–300 g) bred in-house from progenitors obtained from Charles River Laboratories (Sulzfed, Germany) were used in this study. Animals were fasted overnight prior to drug administration but had free access to water. […] Moreover, this compound dissolved in the same solvent was administered orally (po) by oral gavage at two doses (50 and 100 mg/kg) (n = 4). Blood samples were collected from the catheter at various time points up to 5 h. […] The animals were anaesthetized (50/7.5 mg/kg ketamine/xylazine, ip) and sacrificed by decapitation at 5, 15, 30, 60, 120, 180, and 300 min after compound administration (n = 4 per time point). Blood was collected into heparinized tubes and organs such as liver, brain, lungs, kidneys, and heart were harvested. The blood samples were centrifuged at 4000 rpm for 10 min (EBA 12R, Hettich, Germany). Plasma and organs were stored at − 80 °C until analysis.
Determination of KM-408 in plasma and tissue homogenates. Before analysis, tissue samples were homogenized in phosphate-buffered saline, pH 7.4 (1:4, w/v) with a tissue homogenizer (TH220; Omni International, Inc., Warrenton, VA, USA). Plasma (100 μL) or homogenate samples (500 μL) were mixed with an internal standard (IS) solution (R-( +)-propranolol, 4 μg/mL in methanol). Then, 20 μL of sodium carbonate (0.125 M) was added to each tube and the samples were extracted with 3 mL of diethyl ether by vortexing for 1 min. After centrifugation (3000 rpm, 15 min), the organic phase was transferred to a new tube and evaporated to dryness under a gentle stream nitrogen at 37 °C in a water bath. The dry residue was reconstituted in 100 μL of acetonitrile. Subsequently, 50 μL of 0.2 M borate buffer (pH = 7.0) and 50 μL of 6 mM FMOC-Cl solution in acetonitrile were added. After vortex-mixing for 1 min, the samples were kept for 30 min at 40 °C in a dry heat sterilizer (model MOV-112S, Sanyo, Japan). The reaction was stopped by the addition of 0.1 M solution of glycine in water (30 μL) and vortexing for 1 min. The reaction mixture was transferred directly into the autosampler vials. The chromatographic system (Merck-HITACHI, Japan) consisted of an L-2485 spectrofluorimetric detector operating at the excitation and emission wavelengths of 267 and 316 nm, respectively, an L-2130 pump, an L-2350 column oven, and an L-2200 autosampler. The EZChrom Elite Client/Server version 3.2 (Agilent Technologies Inc.) was used for data acquisition and processing. […] The column temperature was maintained at 50 °C. The mobile phase consisted of a mixture of acetonitrile and water (67:33, v/v), and pumped at a flow rate of 1 mL/min.
Pharmacokinetic data analysis. Plasma and tissue concentration versus time profiles were analyzed by the non-compartmental approach in Phoenix WinNonlin v. 6.3 software (Pharsight Corporation, Mountain View, CA, USA). The peak concentration (Cmax) and the time to reach Cmax (tmax) were obtained directly from individual concentration–time profiles. The initial concentration (C0) after an iv dosing was obtained by extrapolation to zero time. The linear trapezoidal rule was applied to calculate the areas under the concentration–time curve (AUC) from the time of dosing to the last measured data point (AUC0-t) or infinity (AUC0-∞). The terminal slope (λz) was estimated by linear regression and the terminal half-life (t0.5λz) was calculated as ln2/λz. The volume of distribution based on the terminal phase (Vz) was calculated as: Dose/(λz ∙ AUC0-∞), whereas clearance (CL) was obtained from the following equation: Dose/AUC0-∞. The mean residence time (MRT) was defined as: AUMC0-∞/AUC0-∞, where AUMC is the area under the first moment curve. The absolute bioavailability (Fa) was calculated according to the equation: (AUCpo./Dosepo)/(AUCiv/Doseiv).

hNav1.4 sodium channel = molecular target: T1, hNav1.4 sodium channel (Homo sapiens, UniProt P35499); experiment: Nav channel electrophysiology (IonWorks Quattro); format: cell-based
T1 construct: host or cells: CHO cells
T1 sequence (P35499 whole entry): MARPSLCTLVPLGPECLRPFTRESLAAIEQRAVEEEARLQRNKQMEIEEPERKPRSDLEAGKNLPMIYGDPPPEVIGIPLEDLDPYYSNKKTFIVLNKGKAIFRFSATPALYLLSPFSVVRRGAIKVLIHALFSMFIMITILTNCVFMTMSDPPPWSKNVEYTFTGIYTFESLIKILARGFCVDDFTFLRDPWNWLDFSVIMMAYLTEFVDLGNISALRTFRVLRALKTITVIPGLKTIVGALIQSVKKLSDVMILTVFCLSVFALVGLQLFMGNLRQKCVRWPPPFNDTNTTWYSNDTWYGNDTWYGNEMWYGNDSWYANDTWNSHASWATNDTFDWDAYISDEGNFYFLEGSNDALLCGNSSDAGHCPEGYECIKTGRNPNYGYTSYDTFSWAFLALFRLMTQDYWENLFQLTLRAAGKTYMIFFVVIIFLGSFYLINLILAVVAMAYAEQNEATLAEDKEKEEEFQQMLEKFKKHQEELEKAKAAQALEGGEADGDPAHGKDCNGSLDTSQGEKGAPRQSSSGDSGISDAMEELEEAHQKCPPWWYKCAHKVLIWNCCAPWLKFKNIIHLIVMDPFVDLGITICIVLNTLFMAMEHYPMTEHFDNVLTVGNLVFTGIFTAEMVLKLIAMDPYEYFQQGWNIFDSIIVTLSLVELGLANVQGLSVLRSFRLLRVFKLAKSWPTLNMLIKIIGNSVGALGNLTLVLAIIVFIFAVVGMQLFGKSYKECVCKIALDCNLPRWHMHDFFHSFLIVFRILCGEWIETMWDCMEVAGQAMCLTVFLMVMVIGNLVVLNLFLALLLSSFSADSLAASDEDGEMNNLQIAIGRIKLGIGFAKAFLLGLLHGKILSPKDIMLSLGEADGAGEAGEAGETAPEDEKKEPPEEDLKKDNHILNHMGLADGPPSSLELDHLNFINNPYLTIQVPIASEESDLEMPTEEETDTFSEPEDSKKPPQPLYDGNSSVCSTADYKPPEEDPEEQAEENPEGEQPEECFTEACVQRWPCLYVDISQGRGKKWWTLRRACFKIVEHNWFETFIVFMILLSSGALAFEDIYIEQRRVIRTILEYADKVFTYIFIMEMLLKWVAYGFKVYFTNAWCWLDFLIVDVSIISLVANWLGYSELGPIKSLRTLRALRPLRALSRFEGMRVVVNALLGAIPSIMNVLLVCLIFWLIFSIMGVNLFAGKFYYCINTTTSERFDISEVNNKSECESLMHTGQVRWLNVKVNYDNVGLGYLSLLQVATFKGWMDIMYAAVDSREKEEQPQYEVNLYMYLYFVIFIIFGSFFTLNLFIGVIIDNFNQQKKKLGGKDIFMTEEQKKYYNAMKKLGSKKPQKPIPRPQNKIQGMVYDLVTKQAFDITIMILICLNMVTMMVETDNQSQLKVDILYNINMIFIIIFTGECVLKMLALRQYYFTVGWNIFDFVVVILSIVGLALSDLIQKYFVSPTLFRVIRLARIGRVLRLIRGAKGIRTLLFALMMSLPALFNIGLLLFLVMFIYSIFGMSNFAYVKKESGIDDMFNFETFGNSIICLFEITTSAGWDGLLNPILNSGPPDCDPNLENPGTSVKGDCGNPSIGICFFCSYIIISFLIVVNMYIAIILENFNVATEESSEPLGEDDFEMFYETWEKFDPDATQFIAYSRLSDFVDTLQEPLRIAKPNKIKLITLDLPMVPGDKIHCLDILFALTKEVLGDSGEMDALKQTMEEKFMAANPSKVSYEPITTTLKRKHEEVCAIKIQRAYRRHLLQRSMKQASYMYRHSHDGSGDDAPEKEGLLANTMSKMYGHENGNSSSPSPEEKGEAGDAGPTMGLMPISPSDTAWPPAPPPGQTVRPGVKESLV

CCC(CO)NCCOc1c(C)cccc1Cl (centres unmarked) [KM-408, R,S-2-((2-(2-chloro-6-methylphenoxy)ethyl)amino)butan-1-ol hydrochloride]
plasma concentration ([1]; 5 mg/kg iv, immediately after administration): 1.48*10^–5 M
bioavailability ([1]; 50 mg/kg, po 50 mg/kg, read-out: F): 3.9%
bioavailability ([1]; 100 mg/kg, po 100 mg/kg, read-out: F): 3.6%
bioavailability ([1]; 100 mg/kg, po 50 and 100 mg/kg, read-out: absolute bioavailability): 3.6 to 3.9%
AUC(0-t) ([1]; iv 1 mg/kg): 207 ng·h/mL
C0 ([1]; iv 1 mg/kg): 371 ng/mL
MRT ([1]; iv 1 mg/kg): 51.7 min
clearance ([1]; iv 1 mg/kg): 80 mL/min/kg
Vd ([1]; iv 1 mg/kg): 2.53 L/kg
k el ([1]; iv 1 mg/kg): 0.000533 s⁻¹
AUC(0-t) ([1]; iv 5 mg/kg): 1210 ng·h/mL
C0 ([1]; iv 5 mg/kg): 4360 ng/mL
MRT ([1]; iv 5 mg/kg): 43.5 min
clearance ([1]; iv 5 mg/kg): 70 mL/min/kg
Vd ([1]; iv 5 mg/kg): 3.77 L/kg
k el ([1]; iv 5 mg/kg): 0.0003 s⁻¹
AUC(0-t) ([1]; iv 10 mg/kg): 2720 ng·h/mL
C0 ([1]; iv 10 mg/kg): 5330 ng/mL
MRT ([1]; iv 10 mg/kg): 42.3 min
clearance ([1]; iv 10 mg/kg): 60 mL/min/kg
Vd ([1]; iv 10 mg/kg): 2.3 L/kg
k el ([1]; iv 10 mg/kg): 0.00045 s⁻¹
AUC(0-t) ([1]; po 50 mg/kg): 430 ng·h/mL
CL/F ([1]; po 50 mg/kg): 1950 mL/min/kg
Cmax ([1]; po 50 mg/kg): 313 ng/mL
MRT ([1]; po 50 mg/kg): 79.1 min
Tmax ([1]; po 50 mg/kg): 30 min
Vd/F ([1]; po 50 mg/kg): 80.3 L/kg
k el ([1]; po 50 mg/kg): 0.000383 s⁻¹
AUC(0-t) ([1]; po 100 mg/kg): 807 ng·h/mL
CL/F ([1]; po 100 mg/kg): 2060 mL/min/kg
Cmax ([1]; po 100 mg/kg): 573 ng/mL
MRT ([1]; po 100 mg/kg): 83 min
Tmax ([1]; po 100 mg/kg): 30 min
Vd/F ([1]; po 100 mg/kg): 104 L/kg
k el ([1]; po 100 mg/kg): 0.000333 s⁻¹
t0.5λz ([1]; iv 1 mg/kg): 21.80 min
t0.5λz ([1]; iv 5 mg/kg): 37.94 min
t0.5λz ([1]; iv 10 mg/kg): 26.02 min
t0.5λz ([1]; po 50 mg/kg): 30.59 min
t0.5λz ([1]; po 100 mg/kg): 34.98 min
IC50 (hNav1.4 sodium channel; 10 Hz): 8.17 µM
IC50 (hNav1.4 sodium channel; Inactivated state): < 10 µM
IC50 (hNav1.4 sodium channel; Tonic block): 68 µM
